Data as given in patent US6458781B1, “Substituted diarylalkyl amides as calcium channel antagonists” (priority 1998, dated 2002).

Assays:
[1] = biological target: T1, L-type calcium channels in A10 cells (Rattus norvegicus, UniProt P22002); experiment: L-type Ca2+ channel blocking potency in A10 cells (FLIPR); type: cell-based; settings: read-out: FLPA10 IC50
T1 construct: which endogenously expresses L-type calcium channels; host or cells: A10 rat embryonic thoracic aorta smooth muscle cells
Method: Measurement of L-type Ca^2+ Channel Blocking Potencies of Compounds in A10 Cells
Calcium flux through voltage-sensitive calcium channels was assessed by time-resolved monitoring of the fluorescence of pre-loaded calcium-sensitive dyes using FLIPR, a fluorescent image plate reader (Molecular Devices Co.). The A10 smooth muscle cell line derived from embryonic thoracic aorta of the DBIX rat (ATCC, CRL-1476) which endogenously expresses L-type calcium channels. The growth media for A10 cells was Ham's F12/DME high glucose (Irvine Scientific, 9052), supplemented with 20% fetal bovine serum (HyClone Labs, A-1115-L), and 1% each of L-glutamine and antibiotic-antimycotic (same source as above).
Cells were grown to confluency and replated on black-sided 96-well plates (Costar, 3603) for use in FLIPR. Two days after replating, growth media was removed and cells were loaded at 37° C. with 100 μL media containing 1 μM Oregon Green 488 Bapta-1 dye (Molecular Probes, O-6807) for 1 to 3 hours. The dye-containing media was then washed away with buffer (composition in mM: 1.25 CaCl2, 1.2 MgSO4, 11 glucose, 10 HEPES, 3.0 KCl, 137.0 NaCl, pH 7.4 with Tris base) in a Denley Cellwash (Labsystems, CW018B). The residual buffer volume was adjusted to 50 μL. A 5 minute drug-pre-incubation period at 35° C. was initiated when 50 μL of drug-containing buffer was pipetted into the cell plate with the 96-well pipettor integrated in the FLIPR apparatus. Fluorescent counts were monitored at 20 second intervals for 360 seconds, beginning 60 seconds prior to the delivery of drug-containing buffer. Following drug addition, 100 μL aliquots of a high K^+, depolarizing stimulus (composition in mM: 1.25 CaCl2, 1.2 MgSO4, 11 glucose, 10 HEPES, 140.0 KCl, pH 7.4 with Tris base) were added to each well, and fluorescence was monitored at 1 second intervals for 120 seconds beginning 10 seconds prior to the stimulus addition. CCD camera exposure time was 0.4 seconds, laser excitation was at 488 nm with a power of 0.2-0.5W, and a 510 to 560 nm bandpass interference filter preceded the camera.
Data was analyzed as a summation of fluorescent counts above basal during the stimulation period (an approximation of area under the curve), after normalizing the data with a spatial uniformity correction (for variations in laser illumination and cell density) and a negative control correction (zero calcium increase defined as the fluorescence reading in the presence of saturating pharmacologic block of the respective calcium channel). Drug effects were expressed as percent inhibition of fluorescence from an average of 8 K^+-stimulated wells which were pre-treated in the drug incubation period with buffer only. In the A10 cells, the pharmacologic agent used to define zero calcium influx was nitrendipine (RBI, N-144) at a final concentration of 1.0×10^−6 M.

[2] = biological target: T2, N-type calcium channels in IMR-32 cells (Homo sapiens, UniProt Q00975); experiment: N-type Ca2+ channel blocking potency in IMR-32 cells using Indo-1; type: cell-based; settings: for IC50: IMR-32 cells, estimated from two data points, read-out: IMR32 IC50 (estimated IC50 values based on two data points); for inhibition at 1 µM / inhibition at 10 µM: IMR-32, IMR-32 cells; for inhibition at 1 µM: read-out: IMR32 % blockage at 1 μM; for inhibition at 10 µM: read-out: IMR32 % blockage at 10 μM
T2 construct: host or cells: IMR-32 cells differentiated with dibutyryl cAMP and bromodeoxyuridine
Method: Measurement of N-type Ca^2+ Channel Blocking Potencies of Compounds in IMR-32 Cells Using the Fluorescent Ca^2+ Indicator Indo-1
IMR-32 cells are a human tumoral cell line of neural origin. […] Calcium flux into these cells may be induced by stimulation with elevated potassium concentrations. The L-channel component of calcium flux may be blocked by adding 5 μM nitrendipine. The remaining component of calcium entry into the IMR-32 cells is due to calcium flux through N-type calcium channels. Intracellular calcium concentrations are measured using the fluorescent calcium indicator Indo-1. The effect of drug concentration on calcium uptake is studied.
The IMR-32 cell line was obtained from the American Type Culture Collection (Rockville, Md.). Cells were grown in Eagle's Minimum Essential Medium with Earle's salts supplemented with 10% fetal bovine serum, 2 mM L-Gln and antibiotic/antimycotic mixture (Gibco). At approximately 80% confluency, differentiation was induced by the addition of 1 mM dibutyryl cAMP and 2.5 μM bromodeoxyuridine to the medium. After 7 to 13 days of differentiation, cells were detached using 0.5 mM EDTA and loaded with 5 μM Indo-1 acetoxymethyl ester (Molecular Probes, Eugene, Oreg.) at 30° C. for 45 minutes. Loaded cells were washed twice, resuspended (˜10^7 cells/mL) in assay buffer (10 mM HEPES/Tris pH 7.4 in Hank's Balanced Salt Solution without bicarbonate or phenol red containing 0.5% bovine serum albumin) and kept on ice until use. Fluorescence measurements were carried out in a Photon Technology International (PTI, South Brunswick, N.J.) Model RF-F3004 spectrofluorometer with dual emission monochromators using excitation at 350 nm and emission at 400 and 490 nm. The instrument was equipped with a thermostated cuvette holder with stirring capabilities as well as with a computer-controlled pump which allowed for reagent addition during measurement. Instrument control and data collection was done by PTI's OSCAR software running on an IBM compatible computer. Different concentrations of the test compounds (60 μL in dimethyl sulfoxide) were added to 5.94 mL of assay buffer containing approximately 3×10^6 loaded cells, and 5 μM Nitrendipine (in 30 μL EtOH) to block L-type Ca^2+ channels. Samples were incubated for 10 minutes at 30° C. and the aliquot into three 10×10 mm disposable acrylic cuvettes. Emission signals at 400 and 490 nm were acquired from each cuvette at 30° C. for 50 seconds. At 20 seconds after the start of reading, cells were depolarized by the addition of 160 μL of stimulation solution (1 M KCl, 68 mM CaCl2) to the cuvette via the computer-controlled pump. Ratio of dual emission signals (400/490 nm), which is proportional to intracellular Ca^2+ concentration, was plotted against time, and the difference between maximal response after stimulation and basal value (before stimulation) was determined. Values obtained in this way were plotted as a function of drug concentration. IC50 values of test compounds were calculated by fitting a four-parameter logistic function to the data using the least squares method.

T1 sequence (P22002 whole entry): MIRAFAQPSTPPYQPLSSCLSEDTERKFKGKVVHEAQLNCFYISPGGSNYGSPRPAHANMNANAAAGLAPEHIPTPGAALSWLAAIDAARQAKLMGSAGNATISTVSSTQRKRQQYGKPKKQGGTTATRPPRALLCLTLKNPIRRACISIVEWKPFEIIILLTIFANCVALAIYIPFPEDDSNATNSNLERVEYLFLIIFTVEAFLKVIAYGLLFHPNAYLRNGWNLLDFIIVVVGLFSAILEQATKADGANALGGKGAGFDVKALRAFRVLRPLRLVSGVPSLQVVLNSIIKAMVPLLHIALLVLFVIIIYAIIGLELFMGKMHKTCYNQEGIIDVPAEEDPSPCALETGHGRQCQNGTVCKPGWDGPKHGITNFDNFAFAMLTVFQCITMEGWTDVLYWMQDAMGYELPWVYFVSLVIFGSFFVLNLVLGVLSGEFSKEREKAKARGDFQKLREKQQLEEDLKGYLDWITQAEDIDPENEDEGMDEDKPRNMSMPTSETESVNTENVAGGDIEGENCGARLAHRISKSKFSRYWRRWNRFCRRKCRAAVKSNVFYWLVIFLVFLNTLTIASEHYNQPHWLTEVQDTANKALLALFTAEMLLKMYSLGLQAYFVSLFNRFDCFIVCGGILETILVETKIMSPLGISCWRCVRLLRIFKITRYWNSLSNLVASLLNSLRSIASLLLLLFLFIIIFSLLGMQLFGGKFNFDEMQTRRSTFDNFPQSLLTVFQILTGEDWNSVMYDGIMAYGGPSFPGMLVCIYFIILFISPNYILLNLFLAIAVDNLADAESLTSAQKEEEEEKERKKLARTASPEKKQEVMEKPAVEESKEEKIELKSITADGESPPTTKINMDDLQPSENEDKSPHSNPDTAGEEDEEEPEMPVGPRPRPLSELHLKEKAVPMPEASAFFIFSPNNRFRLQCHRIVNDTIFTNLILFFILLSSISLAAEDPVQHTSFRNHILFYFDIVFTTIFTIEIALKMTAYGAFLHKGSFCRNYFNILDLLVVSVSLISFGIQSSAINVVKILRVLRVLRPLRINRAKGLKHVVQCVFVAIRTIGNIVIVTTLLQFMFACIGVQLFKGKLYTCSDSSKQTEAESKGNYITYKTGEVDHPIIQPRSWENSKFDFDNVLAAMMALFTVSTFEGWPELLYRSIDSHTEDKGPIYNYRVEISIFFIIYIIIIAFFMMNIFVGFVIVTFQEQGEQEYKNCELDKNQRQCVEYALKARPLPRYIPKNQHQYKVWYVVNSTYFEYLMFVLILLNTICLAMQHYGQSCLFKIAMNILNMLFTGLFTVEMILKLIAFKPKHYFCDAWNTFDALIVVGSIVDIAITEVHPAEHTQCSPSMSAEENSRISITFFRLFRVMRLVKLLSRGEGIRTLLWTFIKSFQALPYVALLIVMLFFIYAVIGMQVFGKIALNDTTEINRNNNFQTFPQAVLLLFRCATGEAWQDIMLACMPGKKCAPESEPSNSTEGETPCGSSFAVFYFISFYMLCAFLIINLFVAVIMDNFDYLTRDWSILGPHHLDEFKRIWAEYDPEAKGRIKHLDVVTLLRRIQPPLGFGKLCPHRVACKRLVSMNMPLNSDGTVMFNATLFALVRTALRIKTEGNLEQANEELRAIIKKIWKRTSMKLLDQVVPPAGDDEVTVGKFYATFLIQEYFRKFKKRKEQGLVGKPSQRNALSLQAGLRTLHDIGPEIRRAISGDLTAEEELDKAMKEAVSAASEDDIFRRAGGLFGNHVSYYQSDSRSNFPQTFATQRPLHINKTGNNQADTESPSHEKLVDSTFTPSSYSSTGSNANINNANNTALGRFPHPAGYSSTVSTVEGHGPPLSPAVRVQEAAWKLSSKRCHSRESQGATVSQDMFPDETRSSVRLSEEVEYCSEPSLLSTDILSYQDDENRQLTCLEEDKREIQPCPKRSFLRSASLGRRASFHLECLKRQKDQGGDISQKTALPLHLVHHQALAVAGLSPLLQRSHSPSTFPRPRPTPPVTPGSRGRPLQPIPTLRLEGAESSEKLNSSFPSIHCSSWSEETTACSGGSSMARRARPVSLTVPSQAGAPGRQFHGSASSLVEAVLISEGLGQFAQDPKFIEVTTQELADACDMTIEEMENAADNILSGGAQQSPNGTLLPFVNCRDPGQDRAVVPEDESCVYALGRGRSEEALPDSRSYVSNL
T1 sequence (P54290 25-944 partner limits assumed): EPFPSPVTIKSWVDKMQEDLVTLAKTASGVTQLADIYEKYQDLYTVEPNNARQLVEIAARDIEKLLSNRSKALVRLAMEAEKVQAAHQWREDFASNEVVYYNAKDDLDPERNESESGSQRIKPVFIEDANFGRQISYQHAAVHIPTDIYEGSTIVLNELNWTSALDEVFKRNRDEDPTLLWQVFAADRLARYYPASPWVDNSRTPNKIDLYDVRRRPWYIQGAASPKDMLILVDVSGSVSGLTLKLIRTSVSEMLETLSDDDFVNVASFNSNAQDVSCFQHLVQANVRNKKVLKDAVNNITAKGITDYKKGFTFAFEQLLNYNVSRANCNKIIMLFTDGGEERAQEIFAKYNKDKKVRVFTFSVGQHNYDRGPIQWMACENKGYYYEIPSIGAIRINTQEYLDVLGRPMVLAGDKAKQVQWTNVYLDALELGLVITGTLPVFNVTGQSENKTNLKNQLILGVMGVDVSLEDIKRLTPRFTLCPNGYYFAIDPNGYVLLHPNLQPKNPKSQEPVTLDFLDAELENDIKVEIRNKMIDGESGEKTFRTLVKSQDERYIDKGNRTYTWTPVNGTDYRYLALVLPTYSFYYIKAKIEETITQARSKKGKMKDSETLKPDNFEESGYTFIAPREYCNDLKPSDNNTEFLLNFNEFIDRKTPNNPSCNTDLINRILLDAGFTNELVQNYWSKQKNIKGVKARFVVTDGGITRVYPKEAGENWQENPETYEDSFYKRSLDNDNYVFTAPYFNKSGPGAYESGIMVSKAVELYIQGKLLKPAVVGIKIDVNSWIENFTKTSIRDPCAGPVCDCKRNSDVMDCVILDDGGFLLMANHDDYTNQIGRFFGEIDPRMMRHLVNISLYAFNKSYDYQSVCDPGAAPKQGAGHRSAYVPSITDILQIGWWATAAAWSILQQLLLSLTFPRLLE
T1 sequence (P54290 945-1091 partner limits assumed): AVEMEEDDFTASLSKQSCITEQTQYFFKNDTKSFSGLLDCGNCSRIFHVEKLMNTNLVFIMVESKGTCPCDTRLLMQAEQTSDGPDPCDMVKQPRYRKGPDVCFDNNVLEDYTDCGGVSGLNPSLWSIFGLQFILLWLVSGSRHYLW
T1 sequence (P54287 whole entry partner): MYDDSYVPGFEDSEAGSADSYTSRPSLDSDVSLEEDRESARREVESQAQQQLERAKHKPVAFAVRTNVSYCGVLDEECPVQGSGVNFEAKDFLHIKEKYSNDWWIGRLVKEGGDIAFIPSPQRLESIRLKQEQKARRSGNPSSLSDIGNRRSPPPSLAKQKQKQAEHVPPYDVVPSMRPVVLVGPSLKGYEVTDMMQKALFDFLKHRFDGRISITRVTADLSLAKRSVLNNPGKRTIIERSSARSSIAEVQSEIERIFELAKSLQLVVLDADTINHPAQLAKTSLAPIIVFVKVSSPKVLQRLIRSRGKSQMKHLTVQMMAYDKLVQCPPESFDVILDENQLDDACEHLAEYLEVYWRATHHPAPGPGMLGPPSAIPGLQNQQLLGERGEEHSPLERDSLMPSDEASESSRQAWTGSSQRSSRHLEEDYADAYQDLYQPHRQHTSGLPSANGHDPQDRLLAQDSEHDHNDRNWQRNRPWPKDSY

Compound	IC50 [1] [nM]	melting point [°C]	IC50 [2] [nM]	inhibition at 1 µM [2] [%]	inhibition at 10 µM [2] [%]
CC(C)C[C@H](NC(=O)OC(C)(C)C)C(=O)N1CCN(C(c2ccc(F)cc2)c2ccc(F)cc2)CC1 [Example 50, (S)-(1-{4-[Bis-(4-fluoro-phenyl)-methyl]-piperazine-1-carbonyl}-3-methyl-butyl)-carbamic acid tert-butyl ester]	950	59 to 66	550		
CC(C)CCN(CCC(C)C)[C@@H](Cc1ccccc1)C(=O)N1CCN(C(c2ccc(F)cc2)c2ccc(F)cc2)CC1.Cl [Example 56, (S)-1-{4-[Bis-(4-fluoro-phenyl)-methyl]-piperazin-1-yl}-2-[bis-(3-methyl-butyl)-amino]-3-phenyl-propan-1-one dihydrochloride]	> 3000	139 to 181		16	37
CC(C)C[C@H](NC(=O)N1CCCCCC1)C(=O)N1CCN(C(c2ccccc2)c2ccccc2)CC1 [Example 48, (S)-Azepane-1-carboxylic acid [1-(4-benzhydryl-piperazine-1-carbonyl)-3-methyl-butyl]-amide]	1700	66 to 74	1200		
CC(C)C[C@H](NC(=O)N1CCCCCC1)C(=O)N1CCN(C2c3ccccc3-c3ccccc32)CC1 [Example 45, (S)-Azepane-1-carboxylic acid {1-[4-(9H-fluoren-9-yl)-piperazine-1-carbonyl]-3-methyl-butyl}-amide]	930	63 to 73	1500		
CC(C)(C)OC(=O)N[C@@H](Cc1ccccc1)C(=O)N1CCN(C(c2ccc(F)cc2)c2ccc(F)cc2)CC1 [Example 51, (S)-(1-Benzyl-2-{4-[bis-(4-fluoro-phenyl)-methyl]-piperazin-1-yl}-2-oxo-ethyl)-carbamic acid tert-butyl ester]	710	54 to 74	250		
CC(C)C[C@@H](C(=O)N1CCN(C(c2ccc(F)cc2)c2ccc(F)cc2)CC1)N(C)C1CCOCC1 [Example 41, (S)-1-{4-[Bis-(4-fluoro-phenyl)-methyl]-piperazin-1-yl}-4-methyl-2-[methyl-(tetrahydro-pyran-4-yl)-amino]-pentan-1-one]	780	56 to 65	2300		
CC(C)C[C@@H](C(=O)N1CCN(C(c2ccc(F)cc2)c2ccc(F)cc2)CC1)N1CCOCC1 [Example 42, (S)-1-{4-[Bis-(4-fluoro-phenyl)-methyl]-piperazin-1-yl}-4-methyl-2-morpholin-4-yl-pentan-1-one]	2000	55 to 63	3400		
CC(C)C[C@@H](C(=O)N1CCN(C(c2ccc(F)cc2)c2ccc(F)cc2)CC1)N(Cc1ccc(C(C)(C)C)cc1)Cc1ccc(C(C)(C)C)cc1 [Example 59, (S)-2-[Bis-(4-tert-butyl-benzyl)-amino]-1-{-4-[bis-(4-fluoro-phenyl)-methyl]-piperazin-1-yl}-4-methyl-pentan-1-one]	> 3000	78 to 86		-5	2
CC(C)C[C@H](NC(=O)N1CCN(c2ccccc2)CC1)C(=O)N1CCN(C(c2ccc(F)cc2)c2ccc(F)cc2)CC1 [Example 44, (S)-4-Phenyl-piperazine-1-carboxylic acid (1-{4-[bis-(4-fluoro-phenyl)-methyl]-piperazine-1-carbonyl}-3-methyl-butyl)-amide]	300	83 to 91	410		
CC(C)C[C@@H](C(=O)N1CCN(C(c2ccc(F)cc2)c2ccc(F)cc2)CC1)N(Cc1ccc(OC(C)(C)C)cc1)Cc1ccc(OC(C)(C)C)cc1 [Example 57, (S)-2-[Bis-(4-tert-butoxy-benzyl)-amino]-1-{4-[bis-(4-fluoro-phenyl)-methyl]-piperazin-1-yl}-4-methyl-pentan-1-one]	> 3000	62 to 67			7
CCC(C)[C@H](NC(=O)N1CCCCCC1)C(=O)NCCCC(c1ccc(F)cc1)c1ccc(F)cc1 (stereo partly drawn) [Example 16, (S)-Azepane-1-carboxylic acid {1-[4,4-bis-(4-fluoro-phenyl)-butylcarbamoyl]-2-methyl-butyl}-amide]	270	50 to 60	610		
CC(C)C[C@H](NC(=O)N1CCN(C)CC1)C(=O)NCCCC(c1ccc(F)cc1)c1ccc(F)cc1 [Example 29, (S)-4-Methyl-piperazine-1-carboxylic acid {1-[4,4-bis-(4-fluoro-phenyl)-butylcarbamoyl]-3-methyl-butyl)-amide]	1200	73 to 91		22	82
CC(C)C[C@@H](C(=O)NCCC(c1ccccc1)c1ccccc1)N1CCCCC1.Cl [Example 24, (S)-4-Methyl-2-piperidin-1-yl-pentanoic acid (3,3-diphenyl-propyl)-amide monohydrochloride]	1500	58 to 65		35	89
CC(C)C[C@H](NCc1ccc(C(C)(C)C)cc1)C(=O)N1CCN(C(c2ccc(F)cc2)c2ccc(F)cc2)CC1 [Example 58, (S)-1-{4-[Bis-(4-fluoro-phenyl)-methyl]-piperazin-1-yl}-2-(4-tert-butyl-benzylamino)-4-methyl-pentan-1-one]	> 3000	57 to 62			
CC(C)C[C@H](NCc1ccc(OC(C)(C)C)cc1)C(=O)N1CCN(C(c2ccc(F)cc2)c2ccc(F)cc2)CC1 [Example 64, (S)-1-{4-[Bis-(4-fluoro-phenyl)-methyl]-piperazin-1-yl}-2-(4-tert-butoxy-benzylamino)-4-methyl-pentan-1-one]	89	56 to 61			
